# Data from patent US20150018325A1, “METHOD FOR LATE POST COITAL CONTRACEPTION USING ULIPRISTAL ACETATE” (LABORATOIRE HRA-PHARMA, priority 2010, published 2015).
# Where “and” joins values, the source holds several entries; their conditions need not be identical. Equal entries are not always repeated. Entries after “also recorded” stand apart in the source; their conditions may differ.
# What was measured:
# [1] = tested on: women presenting 0-120 hours after unprotected intercourse; experiment: Prospective multicenter, single-blind randomized study of ulipristal acetate versus levonorgestrel as emergency contraception 0-120 hours after unprotected intercourse (Example 2); format: in vivo
# Procedure: This was a prospective, single-blind (subject and sponsor blind, investigator not blind), randomized, multicenter, 2-arm parallel comparative study designed to evaluate the efficacy of a single dose of ulipristal acetate (30 mg tablets) compared to levonorgestrel (1.5 mg) administered for EC within 120 hours after unprotected intercourse. It was performed in 10 centers in Europe and 25 centers in the US. Women ([…]), with regular menstrual cycles (between 24 and 35 days and intra-individual variations less than or equal to 5 days), who presented for EC within 120 hours after unprotected intercourse at a participating study site and who met the inclusion/exclusion criteria were enrolled into the study after they signed informed consent form. Subjects were excluded from the study in case of ongoing pregnancy or breast-feeding or current use of hormonal contraception or IUD. The study medication (ulipristal acetate 30 mg or levonorgestrel 1.5 mg) was administered according to a random allocation procedure generated electronically. Treatment was administered orally immediately after all eligibility criteria (including negative urine pregnancy test) had been verified. At follow-up visit (5-7 days after expected onset of menses) a high-sensitivity urine pregnancy test was systematically performed. If the urine pregnancy was positive, this was confirmed by a serum β-hCG test. The pre-treatment serum specimen was also assayed for β-hCG to verify whether the pregnancy pre-dated intake of the study drug. Confirmed pregnancies were further evaluated by scrum quantitative hCG(s) and transvaginal ultrasound(s) to determine the estimated fertilization date. Based on previous similar clinical trials, pregnancy rates in the ulipristal acetate and levonorgestrel group were expected to be 1% and 1.7% respectively. […] For this comparison, the non-inferiority margin was set to 1.6 in odds ratio (a non-inferiority margin of 1.6 in odds ratio is equivalent to a non-inferiority margin of 1% in percent point with an assumed pregnancy rate with levonorgestrel of 1.7%) with a type I error rate of 5% (two-sided) and 85% power. In order to compensate for an anticipated lost to follow-up rate of 10%, 910 patients per group had to be included in the 0-72 hour time interval. Furthermore, recruitment of patients requesting emergency contraception between 72 h and 120 h was estimated to represent 1 out of 10 patients. Therefore, taking into account recruitment in the 72-120 h interval, 1022 patients per group were to be randomized for a total of 2044 patients. […] In order to ensure unbiased evaluation of pregnancy data, an independent, autonomous DSMB composed of two experts in the field of gynecology, one methodologist and one expert in ethical questions was established to review incidence of pregnancy with respect to unacceptability threshold and give recommendations during the course of the clinical trial. In addition, the DSMB assessed whether each pregnancy was “compatible” or “not compatible” with treatment failure based on available data.
# [2] = used within 72 hours of UPI; cited from earlier work
# [3] = tested on: women presenting 48-120 hours after unprotected intercourse; experiment: Prospective multicenter, open label study of ulipristal acetate as emergency contraception 48-120 hours after unprotected intercourse (Example 1); format: in vivo; conditions: for Observed Pregnancy Rate (%): single 30 mg dose
# Procedure: Women 18 and older who presented for emergency contraception at family planning clinics located in the United States, 48-120 hours after UPI and who met the inclusion/exclusion criteria were enrolled into the study after signing the IRB approved informed consent. The inclusion criteria were regular menstrual cycles 24-35 (+/−5) days in length, no current use of hormonal contraception, willingness not to use hormonal contraception until study completion, and agreement to use barrier methods of contraception from enrollment to study completion. Exclusion criteria included pregnancy, breastfeeding, IUD, tubal ligation or partner vasectomy, and uncertainty about recent menstrual history.
# A total of up to three visits were scheduled over the course of the study. The first visit, considered Day 1, included the screening and treatment phases. A high sensitivity urine pregnancy test (level of detection 20 mIU/ml) was performed and a blood sample was taken and stored for later serum quantitative β-hCG testing to exclude pre-existing pregnancy if a pregnancy was detected during the study.
# Women were provided daily diaries in which to record further acts of intercourse, contraception used, vaginal spotting or bleeding, concomitant medication and adverse events during study duration.
# At follow-up visit (5-7 days after expected onset of menses) a high-sensitivity urine pregnancy test was systematically performed. If the urine pregnancy was positive, this was confirmed by a serum β-hCG test. The pre-treatment serum specimen was also assayed for β-hCG to verify whether the pregnancy pre-dated intake of the study drug. Confirmed pregnancies were further evaluated by scrum quantitative hCG(s) and transvaginal ultrasound(s) to determine the estimated fertilization date.
# Women could enroll in the study more than once but they must have completed prior study participation before re-enrolling.
# The primary efficacy measurement was the pregnancy rate, defined as the number of pregnancies after administration of ulipristal acetate for EC divided by the number of women treated. The primary efficacy analysis compared this pregnancy rate to the pregnancy rate that would have been expected in the absence of EC treatment, which was calculated according to Trussell's method (Trussell et al, 1998) using the pooled recognizable set of conception probabilities and the estimated cycle day of UPI based on self-reported date of last menstrual period, cycle length and date of UPI.
# The main secondary efficacy analysis compared the upper bound of the 95% confidence interval of the observed pregnancy rate to a clinical irrelevance threshold of 4%. This threshold corresponds to a reduction by half of the expected 8% pregnancy rate in the absence of contraception as observed in previous international studies (Von Hertzen et al, 1998; Piaggio, 1999; Von Hertzen et al, 2002). The study was to be considered a success only if both the primary efficacy and the main secondary analyses were conclusive. Other secondary analyses included calculation of the prevented fraction, defined as the number of pregnancies prevented (expected minus observed) divided by the number of pregnancies expected, and analysis of trend in pregnancy rates over time (by 24-hour interval) using a logistic regression model.
# The population analyzed for primary efficacy excluded women who were lost to follow-up and women ages 36 and older due to reduced fertility in this age category based upon FDA guidance. Further participations in the study allowed by protocol were also excluded from primary efficacy evaluation, as well as pregnancies that were determined as not compatible with study drug failure by a Data Safety Monitoring Board (DSMB) consisting of independent experts.
# Study enrolment was stopped once 1200 subjects meeting the criteria for the primary efficacy analysis had completed the study.
# [4] = tested on: women treated with ulipristal acetate in the two trials; experiment: Pooled efficacy analysis of Example 1 and Example 2 (Example 3); format: in vivo; conditions: mITT pooled population
# Text: When the efficacy data of women treated with ulipristal acetate in the two trials (Example 1 and Example 2) are grouped in a pooled analysis, further evidence of the efficacy of the method is provided.
# [5] = 0-72 h mITT, ulipristal acetate 30 mg or levonorgestrel 1.5 mg single oral dose
# [6] = >24 to <=48 hours relative to the previous 24 hrs time interval, mITT
# [7] = >48 to <=72 hours relative to the previous 24 hrs time interval, mITT
# [8] = >72 to <=96 hours relative to the previous 24 hrs time interval, mITT
# [9] = mITT, unprotected intercourse within 72 hours of EC intake (p=0.253)
# [10] = mITT, unprotected intercourse within 120 hours of EC intake (p=0.127)
# [11] = 48-72 h after UPI, mITT population
# [12] = >72-96 h after UPI, mITT population
# [13] = >96-120 h after UPI, mITT population
smiles,measurement,setting,value
C#C[C@]1(O)CC[C@H]2[C@@H]3CCC4=CC(=O)CC[C@@H]4[C@H]3CC[C@@]21CC [levonorgestrel],Pregnancy Rate n,[1]; 0-72 h mITT (n = 1694),22
same,Pregnancy Rate (%),[1]; [5],2.59%
same,Pregnancy Rate (%),"[1]; 0-72 h mITT, ulipristal acetate 30 mg or levonorgestrel 1.5 mg single oral dose, listed as Levonorgestrel",2.6%
same,Pregnancy Rate (%),[1]; 0-120 h mITT,2.6%
same,Pregnancy Rate n,[1]; 0-120 h mITT (n = 1899),25
same,Pregnancy Rate (%),[1]; 72-120 h mITT,2.8%
same,Pregnancy Rate n,[1]; 72-120 h mITT (n = 203),3
same,Odds ratio,[1]; [6],0.73
same,Odds ratio,[1]; [7],1.17
same,Odds ratio,[1]; [8],1.08
same,Odds ratio,"[1]; >96 to <=120 hours relative to the previous 24 hrs time interval, mITT",1.11
same,prevented expected pregnancies,[1]; [9],52.2%
same,prevented expected pregnancies,[1]; [10],52.8%
"CC(=O)O[C@]1(C(C)=O)CC[C@H]2[C@@H]3CCC4=CC(=O)CCC4=C3[C@@H](c3ccc(N(C)C)cc3)C[C@@]21C [ulipristal acetate, 17α-acetoxy-11β-[4-N,N-dimethylamino-phenyl)-19-norpregna-4,9-diene-3,20-dione]",Pregnancy Rate n,[1]; 0-72 h mITT (n = 1694),15
same,Pregnancy Rate (%),[1]; [5],1.78%
same,Pregnancy Rate (%),"[1]; 0-72 h mITT, ulipristal acetate 30 mg or levonorgestrel 1.5 mg single oral dose, listed as Ulipristal acetate",1.8%
same,Pregnancy Rate (%),[1]; 0-120 h mITT,1.60%
same,Pregnancy Rate n,[1]; 0-120 h mITT (n = 1899),15
same,Pregnancy Rate (%),"[1]; 0-120 h mITT, listed as Ulipristal acetate",1.6%
same,Pregnancy Rate (%),[1]; 72-120 h mITT,0.0%
same,Pregnancy Rate n,[1]; 72-120 h mITT (n = 203),no pregnancy was observed
same,Pregnancy Rate n,"[1]; 72-120 h mITT (n = 203), listed as Ulipristal acetate",0
same,Pregnancy Rate (%),"[1]; >0 to <=24 hours from unprotected intercourse to treatment, mITT",1.6%
same,Pregnancy Rate (%),"[1]; >24 to <=48 hours from unprotected intercourse to treatment, mITT",2.13% and 2.1%
same,Odds ratio,[1]; [6],1.33
same,Pregnancy Rate (%),"[1]; >48 to <=72 hours from unprotected intercourse to treatment, mITT",1.48% and 1.5%
same,Odds ratio,[1]; [7],0.69
same,Odds ratio,[1]; [8],0.00
same,prevented expected pregnancies,[1]; [9],68.1%
same,prevented expected pregnancies,[1]; [10],72.2%
same,"pregnancies prevented compared to the expected pregnancy rate, ulipristal acetate versus levonorgestrel","[1]; p<0.05 one-sided randomization test within 120 hours, p<0.05 two-sided between 72 and 120 hours, mITT",significantly more pregnancies were prevented with ulipristal acetate than levonorgestrel
same,efficacy for preventing pregnancy compared with levonorgestrel,[2],as effective as levonorgestrel; also recorded: as efficacious as levonorgestrel
same,Effectiveness (Prevented Fraction),[3]; [11],61.9%
same,Observed Pregnancy Rate (%),[3]; [11],2.3%
same,Effectiveness (Prevented Fraction),[3]; [12],57.9%
same,Observed Pregnancy Rate (%),[3]; [12],2.1%
same,Effectiveness (Prevented Fraction),[3]; [13],75.0%
same,Observed Pregnancy Rate (%),[3]; [13],1.3%
same,Observed Pregnancy Rate (%),"[3]; All (48-120 h after UPI), mITT / Primary Efficacy Population",2.1%
same,Effectiveness (Prevented Fraction),"[3]; All (48-120 h after UPI), mITT population, expected pregnancies by Trussell's method",62.3%
same,observed pregnancy rate,"[3]; Safety Population of 1533 women, 48-120 h after UPI",1.9%
same,pregnancies detected at follow-up,"[3]; all women enrolled, before DSMB exclusion of 3 pregnancies",29
same,linear trend of pregnancy rates over time (logistic regression model),"[3]; by 24-hour interval, 48-120 h after UPI, p=0.2490",no evidence of change in efficacy over time
same,Overall observed pregnancy rate (%) (pooled),[4]; 0-24 h,1.60%
same,Overall observed pregnancy rate (%) (pooled),[4]; >24-48 h,2.07%
same,Overall observed pregnancy rate (%) (pooled),[4]; >48-72 h,2.16%
same,Overall observed pregnancy rate (%) (pooled),[4]; >72-96 h,1.76%
same,Overall observed pregnancy rate (%) (pooled),[4]; >96-120 h,1.04%
